The target in assay [1] is T1, human aldehyde reductase (hALR1) (Homo sapiens, UniProt P14550).
T1 sequence (P14550 1-325): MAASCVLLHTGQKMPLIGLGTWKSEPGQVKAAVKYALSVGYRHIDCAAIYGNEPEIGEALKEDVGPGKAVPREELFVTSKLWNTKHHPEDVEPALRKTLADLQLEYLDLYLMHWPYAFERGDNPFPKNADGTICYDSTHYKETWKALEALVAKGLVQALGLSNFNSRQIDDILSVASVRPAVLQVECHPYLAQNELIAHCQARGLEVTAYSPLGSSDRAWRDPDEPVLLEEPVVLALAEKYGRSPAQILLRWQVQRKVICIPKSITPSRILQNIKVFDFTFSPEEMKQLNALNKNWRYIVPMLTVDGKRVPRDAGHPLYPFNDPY
The assay can be described thus: Inhibition of human aldehyde reductase (hALR1), methods of Ishii et al. Format: biochemical. Here is the method: In a second assay, a number of the same compounds were tested for their ability to inhibit aldehyde reductase (hALR1), a structurally related enzyme.
Since high potency of test compounds as inhibitors of aldose reductase is desirable, low hALR2 IC50 values are sought. On the other hand, high potency of test compounds as inhibitors of aldehyde reductase is undesirable, and high ALR1 IC50s values are sought. Accordingly, the hALR1/hALR2 ratio is used to determine the selectivity of the test compounds.

Assay [2] has as its target human aldose reductase (hALR2) (Homo sapiens, UniProt P15121). Kind of assay: Inhibition of human aldose reductase (hALR2), methods similar to Butera et al. Format: biochemical. Particulars: for HALR1/hALR2: ratio of hALR1 IC50 to hALR2 IC50 (selectivity). As to the method: Representative compounds of Formula Iwere tested for their potency, selectivity and efficacy as inhibitors of human aldose reductase.
Since high potency of test compounds as inhibitors of aldose reductase is desirable, low hALR2 IC50 values are sought. On the other hand, high potency of test compounds as inhibitors of aldehyde reductase is undesirable, and high ALR1 IC50s values are sought. Accordingly, the hALR1/hALR2 ratio is used to determine the selectivity of the test compounds. The importance of this selectivity is Described in Kotani, et al., J. Med. Chem. 40: 684, 1997.

Where two headings read alike, the source gives them in different places.

What is called IC50 is the concentration at which inhibition is half-maximal. `O=C(O)Cn1cc(Cc2nc3cc(F)ccc3s2)c2ccccc21` [Example 23, 3-[5-Fluorbenzothiazole-2-yl]methyl-indole-N-acetic Acid] registered an IC50 in assay [1] of 6.5 µM. Further, in assay [2], 9 nM corresponded to half-maximal inhibition (IC50) and the HALR1/hALR2 was 720.

On to `O=C(O)CCn1cc(Cc2nc3c(F)c(F)cc(F)c3s2)c2ccccc21` [Example 26, 3-(4-5.7-trifluorobenzothiazol-2-yl)methyl-indole-N-3-propionic Acid], for which, in assay [2], the half-inhibitory concentration (IC50) is 17 nM.

In assay [2], `O=C(O)Cn1cc(Cc2nc3c(F)c(F)cc(F)c3s2)c2cc(F)ccc21` [Example 9, 5-fluoro-3-(4,5,7-trifluorobenzothiazol-2-yl)methyl-indole-N-acetic Acid] gave an IC50 of 11 nM.

Molecule `O=C(O)Cn1cc(Cc2nc3c(F)c(F)cc(F)c3s2)c2cc(N3CCOCC3)ccc21` [Example 17, 5-morpholino-3-(4,5.7-trifluorobenzothiazol-2-yl)methyl-indole-N-acetic Acid] had a concentration for half-maximal inhibition (IC50) in assay [2] of 8 nM.

Take `O=C(O)Cn1cc(Cc2nc3c(F)c(F)cc(F)c3s2)c2cc(-c3ccccc3)ccc21` [Example 15, 5-phenyl-3-(4,5,7-trifluorobenzothiazol-2-yl)methyl-indole-N-acetic acid]: in assay [2], the IC50 was 53 nM.

`CC(C(=O)O)n1cc(Cc2nc3c(F)c(F)cc(F)c3s2)c2ccccc21` (stereo not drawn) [Example 25, 3-(4.5,7-trifluorobenzothiazol-2-yl)methyl-indole-N-2-propionic Acid]: in assay [2], the IC50 was determined as 160 nM.

For `O=C(O)Cn1cc(Cc2nc3c(F)c(F)cc(F)c3s2)c2cccc(F)c21` [Example 20, 7-fluoro-3-(4,5,7-trifluorobenzothiazol-2-yl)methyl-indole-N-acetic Acid], the IC50 in assay [2] came to 7 nM.

Turning to `O=C(O)Cn1cc(Cc2nc3c(F)c(F)cc(F)c3s2)c2ccc(N3CCOCC3)cc21` [Example 18, 6-morpholino-3-(4,5,7-trifluorobenzothiazol-2-yl) methyl-indole-N-acetic Acid], the IC50 was more than 100 µM in assay [1] (read-out: HALR1 (IC50)) and 15 nM in assay [2] (read-out: hALR2 (IC50)). Moreover, the HALR1/hALR2 in assay [2] is >6,700.

In the case of `O=C(O)Cn1cc(Cc2cccc([N+](=O)[O-])c2)c2ccccc21` [Example 13, 3-(3-nitrophenyl)methyl-indole-N-acetic Acid], the IC50 in assay [1] (read-out: HALR1 (IC50)) is 13 µM. For the same molecule, in assay [2], the IC50 stood at 73 nM and the HALR1/hALR2 is 178.

`O=C(O)Cn1cc(Cc2nc3c(F)c(F)cc(F)c3s2)c2cc(OCc3ccccc3)ccc21` [Example 7, 5-benzyloxy-3-(4,5,7-trifluorobenzothiazol-2-yl)methyl-indole-N-acetic Acid]: the IC50 in assay [2] came to 12 nM.

In turn, `O=C(O)Cn1cc(Cc2nc3c(F)c(F)cc(F)c3s2)c2c(Cl)cccc21` [Example 29, 4-Chloro-3-(4,5,7-trifluorobenzothiazol-2yl) methyl-indole-N-acetic Acid] came in with an IC50 in assay [2] of 11 nM.

The molecule `O=C(O)Cn1cc(Cc2nc3c(F)c(F)cc(F)c3s2)c2ccc(Cl)cc21` [Example 6, 6-chloro-3-(4,5,7-trifluorobenzothiazol-2-yl)methyl-indole-N-acetic Acid] registered an IC50 in assay [2] of 8 nM.

The molecule `O=C(O)Cn1cc(Cc2nc3c(F)c(F)cc(F)c3s2)c2ccc(F)cc21` [Example 8, 6-fluoro-3-(4,5,7-trifluorobenzothiazol-2-yl)methyl-indole-N-acetic Acid] came in with an IC50 in assay [2] of 7 nM.

Take `Cc1c(Cc2nc3c(F)c(F)cc(F)c3s2)c2ccccc2n1CC(=O)O` [Example 1, 2-methyl-3-(4,5,7-trifluorobenzothiazol-2-yl)methyl-indole-N-acetic Acid]: in assay [2], the IC50 stood at 8 nM.

In the case of `COc1ccc2c(Cc3nc4c(F)c(F)cc(F)c4s3)cn(CC(=O)O)c2c1` [Example 28, 6-Methoxy-3-(4,5,7-trifluorobenzothiazol-2-yl)methyl-indole-N-acetic acid], the IC50 in assay [2] came to 5 nM.

Regarding `O=C(O)Cn1cc(Cc2nc3c(F)c(F)cc(F)c3s2)c2ccc(-c3ccccc3)cc21` [Example 16, 6-phenyl-3-(4,5,7-trifluorobenzothiazol-2-yl)methyl-indole-N-acetic Acid], the half-maximal inhibitory concentration (IC50) in assay [1] was found to be 6.2 µM. In assay [2], it took 25 nM to reach half-maximal inhibition (IC50) and the HALR1/hALR2 was 248.

Consider `O=C(O)Cn1c(-c2ccccc2)c(Cc2nc3c(F)c(F)cc(F)c3s2)c2ccccc21` [Example 14, 2-phenyl-3-(4,5,7-trifluorobenzothiazol-2-yl)methyl-indole-N-acetic Acid], for which the IC50 in assay [2] worked out at 101 nM.

As to `O=C(O)Cn1cc(Cc2nc3c(F)c(F)cc(F)c3s2)c2cccc(Br)c21` [Example 21, 7-bromo-3-(4,5,7-trifluorobenzothiazol-2-yl)methyl-indole-N-acetic Acid], the IC50 in assay [2] was found to be 14 nM.

Molecule `O=C(O)Cn1cc(Cc2nc3ccc(Cl)cc3s2)c2ccccc21` [Example 32, 3-(6-chlorobenzothiazol-2-yl) methyl-indole-N-acetic Acid] registered an IC50 in assay [2] of 660 nM.

Turning to `COc1ccc2c(c1)c(Cc1nc3c(F)c(F)cc(F)c3s1)cn2CC(=O)O` [Example 30, 5-Methoxy-3-(4,5,7-trifluorobenzothiazol-2-yl) methyl-indole-N-acetic Acid], the IC50 in assay [2] was found to be 7.7 nM.

With “3-[6-Fluorbenzothiazole-2-yl]methyl-indole-N-acetic Acid [Example 24]”, the HALR1/hALR2 in assay [2] amounted to 4.

In assay [2], `Cc1cccc2c(Cc3nc4c(F)c(F)cc(F)c4s3)cn(CC(=O)O)c12` [Example 5, 7-methyl-3-(4,5,7-trifluorobenzothiazol-2-yl)methyl-indole-N-acetic Acid] displayed an IC50 of 6 nM.

With `O=C(O)Cn1cc(Cc2nc3c(F)c(F)cc(F)c3s2)c2cc(Oc3ccccc3)ccc21` [Example 19, 5-phenoxy-3-(4,5,7-trifluorobenzothiazol-2-yl)methyl-indole-N-acetic Acid], in assay [2], the IC50 worked out at 30 nM.

`O=C(O)Cn1cc(Cc2nc3c(F)c(F)cc(F)c3s2)c2cc(Cl)ccc21` [Example 2, 5-chloro-3-(4,5,7-Trifluorobenzothiazol-2-yl)methyl-indole-N-acetic Acid] came in with an IC50 in assay [2] of 10 nM.

Regarding `O=C(O)Cn1cc(Cc2nc3cc(C(F)(F)F)ccc3s2)c2ccc(Br)cc21` [Example 27, 6-Bromo-3-(5-trifluoromethylbenzothiazol-2-yl)methyl-indole-N-acetic acid], the IC50 in assay [1] is less than 5 µM. Besides, in assay [2], it took 52 nM to reach half-maximal inhibition (IC50) and the HALR1/hALR2 is given as less than 96.

`Cc1ccc2c(c1)c(Cc1nc3c(F)c(F)cc(F)c3s1)cn2CC(=O)O` [Example 4, 5-methyl-3-(4,5,7-trifluorobenzothiazol-2-yl)methyl-indole-N-acetic Acid]: the IC50 in assay [2] was 8 nM.

As to `Cc1ccc2c(Cc3nc4c(F)c(F)cc(F)c4s3)cn(CC(=O)O)c2c1` [Example 10, 6-methyl-3-(4,5,7-trifluorobenzothiazol-2-yl)methyl-indole-N-acetic Acid], the 50% inhibitory concentration (IC50) in assay [2] came to 5 nM.

`O=C(O)Cn1cc(Cc2nc3c(F)c(F)cc(F)c3s2)c2cccc(Cl)c21` [Example 22, 7-chloro-3-(4,5,7-trifluorobenzothiazol-2-yl)methyl-indole-N-acetic Acid] registered an IC50 in assay [2] of 9.1 nM.

On to `O=C(O)Cn1cc(Cc2nc3c(F)c(F)cc(F)c3s2)c2cc(Br)ccc21` [Example 31, 5-Bromo-3-(4,5.7-trifluorobenzothiazol-2-yl) methyl-indole-N-acetic acid], for which the IC50 in assay [1] was 9.7 µM. In addition, in assay [2], the IC50 amounted to 13 nM and the HALR1/hALR2 is 746.

Turning to `Cc1ccc2c(c1)c(Cc1nc3cc(C(F)(F)F)ccc3s1)cn2CC(=O)O` [Example 12, 5-Methyl-3-(5-Trifluoromethylbenzothiazol-2-yl)methyl-indole-N-acetic Acid], the figures for the IC50 in assay [1] and in assay [2] were 10 µM and 102 nM, respectively. Moreover, the HALR1/hALR2 in assay [2] turned out to be 98.

`O=C(O)Cn1cc(Cc2nc3cc(C(F)(F)F)ccc3s2)c2ccccc21` [Example 11, 3-(5-trifluoromethylbenzothiazol-2-yl)methyl-indole-N-acetic Acid] showed a 50% inhibitory concentration (IC50) in assay [2] of 99 nM.
